Counter-ions that a name gives are not always drawn. Like-named read-outs stand apart in the source and are kept apart here.
Experiments:
[1] = molecular target: CDK2/Cyclin A (Homo sapiens, UniProt P24941); test: Inhibition of CDK2/Cyclin A Retinoblastoma Kinase Activity; format: biochemical; settings: for Ki: apparent Ki, CDK2/proteolyzed cyclin A, Rb fragment substrate, 25 μM ATP; for CDK2 % Inhibition At 0.03 μM: Table 2
Outline: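 CDK2 (10 or 19 nM), insect-cell expressed, gel-filtration purified with truncated cyclin A; Rb fragment substrate; 25 μM ATP; 10 mM HEPES pH 7.4, 10 mM MgCl2; 30° C, 60 or 75 min; EDTA stop; phosphocellulose/nitrocellulose capture, phosphorimager. % inhibition vs DMSO control, no-enzyme background subtracted.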

[2] = molecular target: human CDK4 and genetically truncated (1-264) cyclin D3 (Homo sapiens, UniProt P11802); test: Inhibition of CDK4/Cyclin D Retinoblastoma Kinase Activity; format: biochemical; settings: for Ki: apparent Ki, CDK4/truncated cyclin D3, Rb fragment substrate, 25 μM ATP
Outline: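 The enzyme complex (5 nM), expressed in co-infected insect cells, was incubated with recombinant Rb fragment, 25 μM radiolabelled ATP and 2% DMSO at 30 °C. Reactions were stopped with EDTA after 20 minutes, or 60 minutes for tight-binding inhibitors. Apparent Ki values came from competitive inhibition fits.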

[3] = tested on: HCT-116 cell line; test: Inhibition of cell growth, tetrazolium salt (MTT) assay; format: cell-based; settings: for IC50: Homo sapiens, HCT-116, 120 h, MTT, three to five days, read-out: HCT-116 IC50; for HCT-116 % Inhibition at 0.25 μM: 0.25 μM compound
Outline: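 Growth inhibition by MTT reduction at 540 nm (0.2 mg/mL, 4 h at 37° C, formazan dissolved in DMSO), normalized to cells given only 0.5% v/v DMSO. HCT-116 cultures in McCoy's 5A were dosed 4 h post-plating and kept three to five days at 37° C, 5% CO2.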

[4] = 0.1 μM compound, HCT-116, Table 3

Chain of human CDK4 and genetically truncated (1-264) cyclin D3 (P11802 whole entry, the tested form may be a part): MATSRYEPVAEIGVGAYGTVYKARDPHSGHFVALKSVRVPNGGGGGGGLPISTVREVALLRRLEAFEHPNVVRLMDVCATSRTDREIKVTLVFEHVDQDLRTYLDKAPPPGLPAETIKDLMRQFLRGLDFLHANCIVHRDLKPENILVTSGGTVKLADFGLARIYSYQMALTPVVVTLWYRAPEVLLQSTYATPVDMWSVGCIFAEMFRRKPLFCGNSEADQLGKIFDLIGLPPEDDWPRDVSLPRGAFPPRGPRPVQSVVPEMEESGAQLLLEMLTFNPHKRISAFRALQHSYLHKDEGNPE
Chain of human CDK4 and genetically truncated (1-264) cyclin D3 (P30281 1-264 partner): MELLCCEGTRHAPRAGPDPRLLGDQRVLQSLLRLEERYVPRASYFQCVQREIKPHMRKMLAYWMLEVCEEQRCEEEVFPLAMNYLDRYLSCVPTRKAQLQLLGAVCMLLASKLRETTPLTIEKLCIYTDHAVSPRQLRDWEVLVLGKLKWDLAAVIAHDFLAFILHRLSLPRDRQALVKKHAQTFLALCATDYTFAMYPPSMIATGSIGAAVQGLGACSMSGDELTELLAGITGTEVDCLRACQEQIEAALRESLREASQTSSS

`CN1CCN(CCCS(=O)(=O)N2CCC(Nc3nc(N)c(C(=O)c4c(F)cccc4F)s3)CC2)CC1` [Example K16, 1-(4-Amino-2-{1-[3-(4-methylpiperazin-1-yl)propane-1-sulfonyl]-piperidin-4-ylamino}-thiazol-5-yl)-1-(2,6-difluoro-phenyl)-methanone.] showed a Ki [1] of 7.8 nM, a Ki [2] of 2.8 nM and an IC50 ([3]; first HCT-116 column (c4)) of 1800 nM. For the same molecule, the IC50 ([3]; second HCT-116 column (c5)) was 5000 nM.

For `COc1ccc(S(=O)(=O)N2CCC(Nc3nc(N)c(C(=O)c4c(F)cccc4F)s3)CC2)cc1` [Example P20], the “CDK2 % Inhibition at 0.03 μM” value ([1]; 0.03 μM compound, Table 3) was 78%, the “CDK4 % Inhibition at 0.03 μM” value ([2]; 0.03 μM compound, Table 3) was 76% and the “HCT-116 % Inhibition at 0.1 μM” value [3, 4] was 23%. For the same molecule, the “HCT-116 % Inhibition at 0.25 μM” value ([3]; HCT-116, Table 3) was 43%.

With `Nc1nc(NC2CCN(S(=O)(=O)c3ccc(O)c(C(=O)O)c3)CC2)sc1C(=O)c1c(F)cccc1F` [Example P58] the “CDK2 % Inhibition at 0.03 μM” value ([1]; 0.03 μM compound, Table 3) was −16%, the “CDK4 % Inhibition at 0.03 μM” value ([2]; 0.03 μM compound, Table 3) was 15% and the “HCT-116 % Inhibition at 0.1 μM” value [3, 4] was 14%. For the same molecule, the “HCT-116 % Inhibition at 0.25 μM” value ([3]; HCT-116, Table 3) was 30%.

In the case of `N#Cc1ccc(NC(=O)N2CCC(Nc3nc(N)c(C(=O)c4c(F)cccc4F)s3)CC2)cc1` [Example O56], the “CDK2 % Inhibition At 0.03 μM” value ([1]; 0.03 μM compound) is reported as 29%, the “CDK4 % Inhibition at 0.03 μM” value ([2]; 0.03 μM compound, Table 2) is reported as 9% and the “HCT-116 % Inhibition at 0.25 μM” value ([3]; HCT-116, Table 2) is reported as 37%.

With `C[C@@H]1CN(CCc2ccc(S(=O)(=O)N3CCC(Nc4nc(N)c(C(=O)c5c(F)cccc5F)s4)CC3)cn2)C[C@H](C)N1` [Example N8] the Ki [1] was 1.1 nM, the Ki [2] was 0.32 nM and the IC50 ([3]; first HCT-116 column (c4)) was 1300 nM. For the same molecule, the IC50 ([3]; second HCT-116 column (c5)) was 5000 nM.

With `Nc1nc(NC2CCN(S(=O)(=O)c3ccc4ccccc4c3)CC2)sc1C(=O)c1c(F)cccc1F` [Example P3] the “CDK2 % Inhibition at 0.03 μM” value ([1]; 0.03 μM compound, Table 3) was 64%, the “CDK4 % Inhibition at 0.03 μM” value ([2]; 0.03 μM compound, Table 3) was 65% and the “HCT-116 % Inhibition at 0.1 μM” value [3, 4] was 17%. For the same molecule, the “HCT-116 % Inhibition at 0.25 μM” value ([3]; HCT-116, Table 3) was 23%.

`CS(=O)(=O)N1CCC(Nc2nc(N)c(C(=O)c3c(F)cccc3F)s2)CC1` [Example F3, 1-[4-Amino-2-(1-methanesulfonyl-piperidin-4-ylamino)-thiazol-5-yl]-1-(2,6-difluoro-phenyl)-methanone] gave a Ki [1] of 2.9 nM, a Ki [2] of 5.9 nM and an IC50 ([3]; first HCT-116 column (c4)) of 180 nM. For the same molecule, the IC50 ([3]; second HCT-116 column (c5)) was 480 nM.

With `COc1cc(OC)cc(C(=O)N2CCC(Nc3nc(N)c(C(=O)c4c(F)cccc4F)s3)CC2)c1` [Example Q23] the “CDK2 % Inhibition at 0.03 μM” value ([1]; 0.03 μM compound, Table 4) was 20%, the “CDK4 % Inhibition at 0.03 μM” value ([2]; 0.03 μM compound, Table 4) was 56% and the “HCT-116 % Inhibition at 0.1 μM” value ([3]; 0.1 μM compound, HCT-116, Table 4) was 10%. For the same molecule, the “HCT-116 % Inhibition at 0.25 μM” value ([3]; HCT-116, Table 4) was 42%.

With `CC1CCC(C(C)C)C(OC(=O)N2CCC(Nc3nc(N)c(C(=O)c4c(F)cccc4F)s3)CC2)C1` (centres unmarked) [Example R86] the “CDK2 % Inhibition at 0.03 μM” value ([1]; at 0.03 μM) was 9%, the “CDK4 % Inhibition at 0.03 μM” value ([2]; at 0.03 μM) was 9% and the “HCT-116 % Inhibition at 0.1 μM” value ([3]; HCT-116 cells, at 0.1 μM) was 0%. For the same molecule, the “HCT-116 5 Inhibition at 0.25 μM” value ([3]; HCT-116 cells) was 34.

With `CCOC(=O)c1cccc(NC(=O)N2CCC(Nc3nc(N)c(C(=O)c4c(F)cccc4F)s3)CC2)c1` [Example O46] the “CDK2 % Inhibition At 0.03 μM” value ([1]; 0.03 μM compound) was 29%, the “CDK4 % Inhibition at 0.03 μM” value ([2]; 0.03 μM compound, Table 2) was 15% and the “HCT-116 % Inhibition at 0.25 μM” value ([3]; HCT-116, Table 2) was 41%.

`Nc1nc(NC2CCN(C(=S)Oc3ccc(F)cc3)CC2)sc1C(=O)c1c(F)cccc1F` [Example R85] was tested, and the “CDK2 % Inhibition at 0.03 μM” value ([1]; at 0.03 μM) was 90%, the “CDK4 % Inhibition at 0.03 μM” value ([2]; at 0.03 μM) was 81% and the “HCT-116 % Inhibition at 0.1 μM” value ([3]; HCT-116 cells, at 0.1 μM) was 0%. The “HCT-116 5 Inhibition at 0.25 μM” value ([3]; HCT-116 cells) was 47.

`Nc1nc(NC2CCN(C(=O)c3ccc(I)cc3)CC2)sc1C(=O)c1c(F)cccc1F` [Example C1, {4-Amino-2-[1-(4-iodo-benzoyl)-piperidin-4-ylamino]-thiazol-5-yl}-(2,6-difluoro-phenyl)-methanone] gave a Ki [1] of 68 nM, a Ki [2] of 11 nM and an IC50 ([3]; first HCT-116 column (c4)) of 1200 nM. For the same molecule, the IC50 ([3]; second HCT-116 column (c5)) was 2300 nM.

Work on `C[C@@H](O)CN(C)c1ccc(S(=O)(=O)N2CCC(Nc3nc(N)c(C(=O)c4c(F)cccc4F)s3)CC2)cn1` [Example G17, 1-[4-Amino-2-(1-{6-[((R)-2-hydroxy-propyl)-methyl-amino]-pyridine-3-sulfonyl}-piperidine-4-ylamino)-thiazol-5-yl]-1-(2,6-difluoro-phenyl)-methanone Trifluoroacetic Acid Salt] yielded a Ki [1] of 0.55 nM, a Ki [2] of 1.4 nM and an IC50 ([3]; first HCT-116 column (c4)) of 360 nM. The IC50 ([3]; second HCT-116 column (c5)) was 900 nM.

For `Cc1ccc(NC(=O)N2CCC(Nc3nc(N)c(C(=O)c4c(F)cccc4F)s3)CC2)c(C)c1` [Example O41], the “CDK2 % Inhibition At 0.03 μM” value ([1]; 0.03 μM compound) was 33%, the “CDK4 % Inhibition at 0.03 μM” value ([2]; 0.03 μM compound, Table 2) was 1% and the “HCT-116 % Inhibition at 0.25 μM” value ([3]; HCT-116, Table 2) was 26%.

From patent US20050101595A1, “N-containing cycloalkyl-substituted amino-thiazole derivatives and pharmaceutical compositions for inhibiting cell proliferation and methods for their use” (PFIZER INC., priority 2003, published 2005)
